Some test systems named below: LOX IMVI melanoma; 786-0 renal; OVCAR-5 ovarian; COLO 205 colon; EKVX NSCLC; NCI-H522 lung; SF-295 CNS; SK-MEL-5 melanoma; SK-MEL-28 melanoma; HL-60(TB) leukemia.
Common to all, as to assay: growth of human tumour cells (NCI), 48 h

Several values for one entry are separate records, joined by “and”; a condition that tells them apart may be missing. Equal entries are not always repeated.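 Five compound concentrations were applied to cells in 96-well plates for 48 hours; endpoints were derived by simple linear interpolation of the resulting dose-response curve. Abbreviation: GI50, concentration required for 50% inhibition of growth. Definition used: TGI = concentration required for complete inhibition of growth.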

With `Cc1ccc2c(-c3ccnc(Nc4cccc(C(F)(F)F)c4)n3)c(-c3ccccc3)nn2n1`, the GI50 with LOX IMVI melanoma is 4.92 µM; with 786-0 renal, 4.67 µM; in the assay on OVCAR-5 ovarian it was 10.2 µM; with COLO 205 colon, 4.04 µM; in the assay with EKVX NSCLC, 10.5 µM; in the assay on NCI-H522 lung, 5.73 µM. The results for the GI50 in the assay on SF-295 CNS, in the assay with SK-MEL-5 melanoma and with SK-MEL-28 melanoma were greater than 13.4 µM, 4.05 µM and greater than 15.4 µM, respectively. For the same compound, the TGI in the assay with LOX IMVI melanoma was greater than 17.2 µM; in the assay with 786-0 renal it was greater than 15.1 µM; with OVCAR-5 ovarian it was 24.6 µM; in the assay with COLO 205 colon, greater than 25 µM; in the assay with EKVX NSCLC, greater than 25 µM; with NCI-H522 lung, greater than 14.7 µM. For the same compound, the TGI in the assay on SF-295 CNS is greater than 25 µM; with SK-MEL-5 melanoma it was 7.94 µM; in the assay on SK-MEL-28 melanoma, greater than 25 µM.
For `O=C(CCl)N1CCN(c2ccccn2)CC1`, the TGI was 35.1 µM in the assay with 786-0 renal; 35.1 µM in the assay on OVCAR-5 ovarian; 47.4 µM in the assay with COLO 205 colon; 48.6 µM with EKVX NSCLC; 49.6 µM with HL-60(TB) leukemia; greater than 10 µM in the assay on SF-295 CNS. The TGI in the assay with SK-MEL-5 melanoma is 35 µM; in the assay on SK-MEL-28 melanoma, 41.6 µM.
Consider `CN(C)C/C=C/C(=O)Nc1ccc(C(=O)Nc2cccc(Nc3ncc(Cl)c(-c4c[nH]c5ccccc45)n3)c2)cc1`, for which the GI50 with LOX IMVI melanoma is 0.0133 µM; in the assay with 786-0 renal, 0.0441 µM; in the assay on OVCAR-5 ovarian, 0.0531 µM; in the assay with COLO 205 colon, 0.0121 µM; in the assay with EKVX NSCLC, 0.03 µM; in the assay with NCI-H522 lung, 0.0172 µM. Moreover, the results for the GI50 in the assay on SF-295 CNS, in the assay on SK-MEL-5 melanoma and in the assay with SK-MEL-28 melanoma were 0.155 µM, 0.035 µM and 0.0215 µM, respectively. The TGI in the assay with LOX IMVI melanoma is 0.0856 µM; with COLO 205 colon it was 0.0562 µM; with EKVX NSCLC, 0.283 µM; with NCI-H522 lung it was 0.094 µM; in the assay on SF-295 CNS, 0.475 µM; in the assay with SK-MEL-5 melanoma, greater than 100 µM. This compound also returned a TGI in the assay with SK-MEL-28 melanoma of 0.532 µM.
On to `CCN1C[C@@H](C)n2c(c(O)c3c(=O)n(Cc4ccc(F)c(Cl)c4)nc(C(=O)NC)c32)C1=O`, for which the GI50 in the assay on LOX IMVI melanoma is 3.13 µM; in the assay with 786-0 renal, 2.91 µM; in the assay on OVCAR-5 ovarian, 3.86 µM; in the assay with COLO 205 colon it was 18.3 µM; in the assay on NCI-H522 lung, 2.95 µM; in the assay with SF-295 CNS, 2.88 µM. Also, the results for the GI50 with SK-MEL-5 melanoma and in the assay with SK-MEL-28 melanoma were 1.98 µM and 2.69 µM, respectively. For the same compound, the TGI in the assay with LOX IMVI melanoma is 18 µM; in the assay on 786-0 renal, 8.4 µM; in the assay on OVCAR-5 ovarian, greater than 100 µM; in the assay with COLO 205 colon, 40.3 µM; in the assay on NCI-H522 lung, 9.47 µM; in the assay on SF-295 CNS it was greater than 100 µM. The TGI with SK-MEL-5 melanoma worked out at 4.49 µM; with SK-MEL-28 melanoma it was 7.17 µM.
Regarding `CN(C)Cc1ccc(O)c(CN(C)C)n1`, the TGI in the assay with LOX IMVI melanoma, with 786-0 renal, in the assay on OVCAR-5 ovarian, with COLO 205 colon, in the assay with EKVX NSCLC and in the assay on NCI-H522 lung was greater than 100 µM each time. Besides, the TGI in the assay with SF-295 CNS, in the assay on SK-MEL-5 melanoma and in the assay on SK-MEL-28 melanoma was greater than 100 µM throughout.
For `NC(N)=NCCCC(Nc1c2ccccc2nc2ccccc12)C(=O)O` (centres undefined), the TGI in the assay with LOX IMVI melanoma, in the assay with 786-0 renal, in the assay on OVCAR-5 ovarian, in the assay on COLO 205 colon, in the assay on EKVX NSCLC and in the assay with HL-60(TB) leukemia was greater than 100 µM each time. The TGI in the assay with NCI-H522 lung, with SF-295 CNS and in the assay on SK-MEL-28 melanoma was greater than 100 µM throughout.
As for `O=C1NC(c2cccc3ccccc23)Nc2ccc(Cl)cc21` (centres undefined), the TGI was 14.6 µM in the assay with LOX IMVI melanoma; 23.1 µM in the assay with 786-0 renal; 0.085 µM in the assay with OVCAR-5 ovarian; 0.0175 µM and 0.0795 µM with COLO 205 colon; 83.3 µM in the assay with EKVX NSCLC; 0.000441 µM with HL-60(TB) leukemia. Also, the TGI is 0.0232 µM in the assay on SF-295 CNS and 20.6 µM in the assay on SK-MEL-28 melanoma. Further, the GI50 with OVCAR-5 ovarian was 0.0291 µM; in the assay on EKVX NSCLC, 0.0129 µM.
Regarding `C=C1C2CCCC1C1(S(C)(=O)=O)CCCCC21O` (centres undefined), the TGI in the assay with 786-0 renal, in the assay on OVCAR-5 ovarian, in the assay with COLO 205 colon, in the assay with EKVX NSCLC, in the assay on NCI-H522 lung and in the assay on SF-295 CNS was greater than 100 µM each time. For the same compound, the TGI in the assay with SK-MEL-5 melanoma and in the assay on SK-MEL-28 melanoma was greater than 100 µM throughout.
On to `Cc1c(C(=O)/C=C/c2ccc([N+](=O)[O-])cc2)[n+](=O)c2ccccc2n1[O-]`, for which the TGI is greater than 100 µM in the assay on LOX IMVI melanoma; greater than 100 µM in the assay with 786-0 renal; greater than 100 µM with OVCAR-5 ovarian; greater than 100 µM in the assay on COLO 205 colon; greater than 100 µM in the assay on EKVX NSCLC; 2.89 µM in the assay with HL-60(TB) leukemia. The TGI in the assay with NCI-H522 lung was 53.6 µM; with SF-295 CNS, greater than 100 µM; with SK-MEL-28 melanoma it was greater than 100 µM.
Turning to `O=C(CCl)N1CCN(c2ccccc2)CC1`, the TGI in the assay with 786-0 renal came to 29.3 µM; with OVCAR-5 ovarian it was 34.9 µM; in the assay on COLO 205 colon, 40 µM; in the assay on EKVX NSCLC, 44.2 µM; in the assay with HL-60(TB) leukemia, 41.2 µM; with SF-295 CNS, 36.2 µM. Moreover, the TGI with SK-MEL-5 melanoma came out at 31.1 µM; with SK-MEL-28 melanoma, 35.7 µM.
For `CCNCCS(=O)(=O)NC[C@@]1(c2ccccc2)SC(NC(=O)C(C)(C)C)=NN1C(=O)C(C)(C)C`, the GI50 was less than 0.0285 µM in the assay on LOX IMVI melanoma; 0.341 µM with 786-0 renal; 0.138 µM in the assay with OVCAR-5 ovarian; less than 0.01 µM in the assay on COLO 205 colon; less than 0.0314 µM with EKVX NSCLC; less than 0.01 µM with NCI-H522 lung. The GI50 in the assay with SF-295 CNS was less than 0.01 µM; in the assay with SK-MEL-5 melanoma, less than 0.01 µM; in the assay with SK-MEL-28 melanoma, 11.3 µM. In addition, the TGI was greater than 47.3 µM in the assay on LOX IMVI melanoma; greater than 100 µM in the assay with 786-0 renal; greater than 100 µM with OVCAR-5 ovarian; 12.1 µM in the assay with COLO 205 colon; greater than 100 µM in the assay with EKVX NSCLC; less than 0.01 µM with NCI-H522 lung. Moreover, the TGI with SF-295 CNS is 1.16 µM; in the assay with SK-MEL-5 melanoma, 20.3 µM; in the assay with SK-MEL-28 melanoma it was greater than 100 µM.

The record behind these values is PubChem BioAssay (NCI).
